Test results taken from ChEMBL document CHEMBL5576098, “Synthesis and activity of benzimidazole N-Acylhydrazones against Trypanosoma cruzi, Leishmania amazonensis and Leishmania infantum” (Bioorg Med Chem Lett, 2024).
Calls of active or inactive are those of the source. No cut-off for these calls is given here.

Columns and labels:
Trypanosoma cruzi [1] = assay: Antitrypanosomal activity against bloodstream trypomastigote form of Trypanosoma cruzi Y measured after 24 hrs; type: functional, organism-based
Trypanosoma cruzi [2] = assay: Antitrypanosomal activity against Trypanosoma cruzi Tulahuen expressing beta-galactosidase gene infected in mouse L929 cells measured after 120 hrs; type: functional, organism-based; conditions: L929, 120 h
Trypanosoma cruzi [3] = assay: Antitrypanosomal activity against tissue-culture derived trypomastigote form of Trypanosoma cruzi Y measured after 120 hrs; type: functional
[4] = Cytotoxicity against mouse L929 cells assessed as inhibition of cell viability measured after 120 hrs; type: toxicity, cell-based
[5] = Selectivity index, ratio of CC50 for mouse L929 cells to IC50 for Trypanosoma cruzi Tulahuen expressing beta-galactosidase gene infected in mouse L929 cells; type: toxicity, cell-based; conditions: read-out: Ratio CC50/IC50
[6] = target: Cruzipain (Trypanosoma cruzi) (UniProt P25779); assay: Inhibition of Trypanosoma cruzi cruzain at 100 uM relative to control
Leishmania infantum [7] = assay: Antiparasitic activity against Leishmania infantum promastigotes infected in mouse RAW264.7 cells measured after 48 hrs; type: functional, organism-based; conditions: for IC50: RAW264.7, 48 h
Leishmania infantum [8] = assay: Antiparasitic activity against Leishmania infantum amastigotes infected in mouse RAW264.7 cells measured after 48 hrs; type: functional, organism-based; conditions: for IC50: RAW264.7, 48 h
[9] = Cytotoxicity against mouse RAW264.7 cells measured after 48 hrs; type: toxicity, cell-based
Leishmania amazonensis [10] = assay: Antiparasitic activity against Leishmania amazonensis promastigotes infected in mouse RAW264.7 cells measured after 48 hrs; type: functional, organism-based; conditions: for IC50: RAW264.7, 48 h
Leishmania amazonensis [11] = assay: Antiparasitic activity against Leishmania amazonensis amastigotes infected in mouse RAW264.7 cells measured after 48 hrs; type: functional, organism-based; conditions: for IC50: RAW264.7, 48 h
[12] = Selectivity index, ratio of CC50 for mouse RAW264.7 cells to IC50 for Leishmania infantum promastigotes infected in mouse RAW264.7 cells; type: toxicity, cell-based; conditions: read-out: Ratio CC50/IC50
[13] = Selectivity index, ratio of CC50 for mouse RAW264.7 cells to IC50 for Leishmania infantum amastigotes infected in mouse RAW264.7 cells; type: toxicity, cell-based; conditions: read-out: Ratio CC50/IC50
[14] = Selectivity index, ratio of CC50 for mouse RAW264.7 cells to IC50 for Leishmania amazonensis amastigotes infected in mouse RAW264.7 cells; type: toxicity, cell-based; conditions: read-out: Ratio CC50/IC50
[15] = Cytotoxicity against non-infected mouse peritoneal macrophage cells measured after 24 hrs; type: toxicity, cell-based; conditions: non-infected peritoneal macrophages, read-out: LC50
[16] = Selectivity index, ratio of LC50 for mouse peritoneal macrophage cells to IC50 for bloodstream trypomastigote form of Trypanosoma cruzi Y; type: toxicity; conditions: peritoneal macrophages, read-out: Ratio LC50/IC50
[17] = Selectivity index, ratio of CC50 for mouse RAW264.7 cells to IC50 for Leishmania amazonensis promastigotes infected in mouse RAW264.7 cells; type: toxicity, cell-based; conditions: read-out: Ratio CC50/IC50
Leishmania infantum [18] = assay: Antiparasitic activity against Leishmania infantum; type: functional, organism-based
Trypanosoma cruzi [19] = assay: Potency index, ratio of benznidazole IC50 to test compound IC50 for antitrypanosomal activity against Trypanosoma cruzi Tulahuen expressing beta-galactosidase gene infected in mouse L929 cells measured after 120 hrs; type: functional

Chain of Cruzipain (Trypanosoma cruzi) (P25779 123-467 limits assumed): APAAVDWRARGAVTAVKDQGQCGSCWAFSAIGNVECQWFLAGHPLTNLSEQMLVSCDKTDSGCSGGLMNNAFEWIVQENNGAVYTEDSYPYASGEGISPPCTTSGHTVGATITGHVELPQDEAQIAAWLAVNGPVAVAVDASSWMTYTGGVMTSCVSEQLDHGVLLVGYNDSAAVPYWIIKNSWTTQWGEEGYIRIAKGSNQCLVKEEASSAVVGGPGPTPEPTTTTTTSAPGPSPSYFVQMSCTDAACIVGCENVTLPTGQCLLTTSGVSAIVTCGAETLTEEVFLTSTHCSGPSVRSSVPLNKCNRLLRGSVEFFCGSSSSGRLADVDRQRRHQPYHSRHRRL

Row | Structure (SMILES) | IC50 (Trypanosoma cruzi [1]) | IC50 (Trypanosoma cruzi [2]) | LC50 (Trypanosoma cruzi [3]) | CC50 at 120 h [4] | selectivity ratio [5] | inhibition [6] | Activity (Leishmania infantum [7]) | Activity (Leishmania infantum [8]) | CC50 at 48 h [9] | Activity (Leishmania amazonensis [10]) | Activity (Leishmania amazonensis [11]) | IC50 (Leishmania infantum [8]) | selectivity ratio [13] | IC50 (Leishmania amazonensis [11]) | selectivity ratio [14] | CC50 at 24 h [15] | also measured
1 | COc1cc(/C=N/NC(=O)c2nc3ccccc3[nH]2)cc([N+](=O)[O-])c1O | > 500 µM | 104 µM | 369 µM | 124 µM | 1.2 | 45% | inactive | inactive | 84.4 µM | inactive | inactive |  |  |  |  |  | 
2 | O=C(N/N=C/c1ccc(Br)cc1)c1nc2ccccc2[nH]1 | > 500 µM | 7.3 µM |  | 49.8 µM | 6.8 | 3% | inactive | inactive | 8.6 µM | inactive | inactive |  |  |  |  |  | 
3 | O=C(N/N=C/c1ccccc1O)c1nc2ccccc2[nH]1 | > 500 µM | 3.6 µM | 19.9 µM | 52.4 µM | 14.7 | 4% |  |  | 29.2 µM | inactive |  | 21.8 µM | 1.3 | 104 µM | 0.3 |  | IC50 (Leishmania infantum [7]): 23.9 µM; selectivity ratio [12]: 1.2
4 | O=C(N/N=C/c1ccc2c(c1)OCO2)c1nc2ccccc2[nH]1 | > 500 µM | 105 µM |  | 148 µM | 1.4 | 47% | inactive | inactive | 30.1 µM | inactive |  |  |  | 45.1 µM | 0.7 |  | 
5 | COc1cc(/C=N/NC(=O)c2nc3ccccc3[nH]2)cc(OC)c1OC | > 500 µM | 35.6 µM | 343 µM | 203 µM | 5.7 | 6% | inactive |  | 42.3 µM |  |  | > 282 µM |  | 148 µM | 0.3 |  | IC50 (Leishmania amazonensis [10]): > 282 µM
6 | O=C(N/N=C/c1ccc(O)cc1)c1nc2ccccc2[nH]1 | 89.7 µM | 68.9 µM | 233 µM | 170 µM | 2.5 | 65% | inactive |  | 88.8 µM | inactive | inactive | 97.4 µM | 0.9 |  |  | > 500 µM | selectivity ratio [16]: > 5.6
7 | COc1cc(/C=N/NC(=O)c2nc3ccccc3[nH]2)ccc1O | > 500 µM | 65.7 µM | 394 µM | 72.2 µM | 1.1 | 38% | inactive | inactive | 89.9 µM | inactive | inactive |  |  |  |  |  | 
8 | COc1cc(/C=N/NC(=O)c2nc3ccccc3[nH]2)cc(OC)c1 | > 500 µM | 29 µM |  | 164 µM | 5.6 | 50% | inactive | inactive | 8.94 µM | inactive |  |  |  | 71.8 µM | 0.1 |  | 
9 | O=C(N/N=C/c1ccncc1)c1nc2ccccc2[nH]1 | > 500 µM | 32.4 µM | 619 µM | 265 µM | 8.2 | 20% | inactive | inactive | 126 µM | inactive |  |  |  | 172 µM | 0.7 |  | 
10 | O=C(N/N=C/c1ccc(F)cc1)c1nc2ccccc2[nH]1 | > 500 µM | 230 µM | 633 µM | 354 µM | 1.5 | 17% | inactive |  | 57.8 µM | inactive |  | 18.4 µM | 3.1 | > 354 µM |  |  | 
11 | O=C(N/N=C/c1cccs1)c1nc2ccccc2[nH]1 | > 500 µM | 91.7 µM | 416 µM | 170 µM | 1.9 | 24% | inactive |  | 131 µM | inactive |  | 48.8 µM | 2.7 | 61.4 µM | 2.1 |  | 
12 | O=C(N/N=C/c1ccc([N+](=O)[O-])cc1)c1nc2ccccc2[nH]1 | > 500 µM | 202 µM | 328 µM | > 323 µM | > 1.6 | 2% | inactive | inactive | 84.4 µM | inactive | inactive |  |  |  |  |  | 
13 | O=C(N/N=C/c1ccc(O)c(O)c1)c1nc2ccccc2[nH]1 | 144 µM | 72.9 µM | 98.2 µM | 102 µM | 1.4 | 61% |  |  | 14.8 µM |  |  | 37.8 µM | 0.4 | 62.1 µM | 0.2 | 128 µM | selectivity ratio [16]: 0.9; IC50 (Leishmania infantum [7]): 90.8 µM; selectivity ratio [12]: 0.2; IC50 (Leishmania amazonensis [10]): 170 µM; selectivity ratio [17]: 0.09
14 | CCCCCCCCCCCCCCCCOP(=O)([O-])OCC[N+](C)(C)C [MILTEFOSINE] |  |  |  |  |  |  |  |  | 21.8 µM |  |  | 1.72 µM | 12.7 | 1.67 µM | 13.1 |  | IC50 (Leishmania infantum [7]): 3.92 µM; selectivity ratio [12]: 5.6; IC50 (Leishmania amazonensis [10]): 5.2 µM; selectivity ratio [17]: 4.2
15 | CCCn1c(NC(=O)Cc2ccc(Cl)cc2)nc2ccccc21 |  |  |  |  |  |  |  |  |  |  |  |  |  |  |  |  | IC50 (Leishmania infantum [18]): 12 µM
16 | COc1ccc(/C=N/NC(=O)c2nc3ccccc3[nH]2)cc1 | 207 µM | 80.5 µM | 472 µM | 170 µM | 2.1 | 22% | inactive |  | 188 µM | inactive |  | 36.7 µM | 5.1 | 35 µM | 5.4 | > 500 µM | 
17 | COc1ccc(/C=N/NC(=O)c2nc3ccccc3[nH]2)cc1O | 123 µM | 24.8 µM | 203 µM | 153 µM | 6.2 | 58% |  |  | 88.9 µM | inactive |  | 52.5 µM | 1.7 | 136 µM | 0.7 | 120 µM | selectivity ratio [16]: 1; IC50 (Leishmania infantum [7]): 191 µM; selectivity ratio [12]: 0.5
18 | O=C(N/N=C/c1ccc(Cl)cc1)c1nc2ccccc2[nH]1 | > 500 µM | 14.7 µM |  | 51.9 µM | 3.5 | 3% |  |  | 12.4 µM | inactive | inactive | 28.4 µM | 0.4 |  |  |  | IC50 (Leishmania infantum [7]): > 335 µM
19 | O=C(N/N=C/c1ccc([N+](=O)[O-])o1)c1nc2ccccc2[nH]1 | 304 µM | 0.033 µM | 15 µM | 257 µM | 7680 | 18% |  |  | 25.7 µM | inactive |  | 61.8 µM | 0.4 | 18.4 µM | 1.4 | > 500 µM | selectivity ratio [16]: > 1.6; IC50 (Leishmania infantum [7]): 28.7 µM; selectivity ratio [12]: 0.9; Ratio IC50 (Trypanosoma cruzi [19]): 46
20 | O=C(Cn1ccnc1[N+](=O)[O-])NCc1ccccc1 [BENZNIDAZOLE] | 8.8 µM | 1.52 µM | 10.8 µM | 2110 µM | 1390 |  |  |  |  |  |  |  |  |  |  | > 1000 µM | selectivity ratio [16]: 113
21 | O=C(N/N=C/c1ccccc1)c1nc2ccccc2[nH]1 | > 500 µM | 98.4 µM |  | 204 µM | 2.1 | 25% | inactive |  | 123 µM | inactive |  | 53.7 µM | 2.3 | 191 µM | 0.6 |  | 
22 | COc1ccc(/C=N/NC(=O)c2nc3ccccc3[nH]2)cc1OC | 160 µM | 173 µM |  | 293 µM | 1.7 | 35% | inactive | inactive | 53.6 µM | inactive | inactive |  |  |  |  | > 500 µM | selectivity ratio [16]: > 3.1
